Experimental data as given in ChEMBL document CHEMBL1201862, “PubChem BioAssay data set” (2004).
Active and inactive are the calls of the source.

Assays:
[1] = biological target: T1, Protein skinhead-1 (Caenorhabditis elegans, UniProt P34707); assay type: functional
T1 sequence (P34707 whole entry): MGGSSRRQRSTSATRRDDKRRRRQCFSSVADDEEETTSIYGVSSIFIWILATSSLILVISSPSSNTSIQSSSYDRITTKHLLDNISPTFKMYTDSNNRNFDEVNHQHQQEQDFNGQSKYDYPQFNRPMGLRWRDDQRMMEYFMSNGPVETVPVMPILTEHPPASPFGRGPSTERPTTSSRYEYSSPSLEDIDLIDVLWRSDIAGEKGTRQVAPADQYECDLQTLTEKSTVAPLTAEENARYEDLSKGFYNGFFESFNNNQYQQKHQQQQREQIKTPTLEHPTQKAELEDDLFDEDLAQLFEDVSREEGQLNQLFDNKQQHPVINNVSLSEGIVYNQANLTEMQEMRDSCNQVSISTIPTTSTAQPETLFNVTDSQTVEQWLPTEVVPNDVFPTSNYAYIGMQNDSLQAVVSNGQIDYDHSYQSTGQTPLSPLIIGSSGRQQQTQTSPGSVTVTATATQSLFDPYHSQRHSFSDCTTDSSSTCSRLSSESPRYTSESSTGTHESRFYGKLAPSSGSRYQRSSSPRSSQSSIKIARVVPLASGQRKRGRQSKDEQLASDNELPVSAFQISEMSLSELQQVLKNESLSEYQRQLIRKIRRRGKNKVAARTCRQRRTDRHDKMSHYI

[2] = HEp-2 cell cytotoxicity, dose response, cytotoxicity control for RSV inhibitor project, HTS (AID 2410); assay type: functional; conditions: human respiratory syncytial virus
[3] = growth suppression of PTEN-null colon cells, dose response, cell-based, HCT116 PTEN knockout (AID 1047); assay type: functional;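 further: HCT116 colon tumor cells with PTEN knocked out; cells exposed to compound for 60 hours before readout; potency for loss of cell viability measured by luminescence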
[4] = growth suppression of beta-catenin-knockout colon cells, dose response, cell-based, HCT116, human colon tumor (AID 1045); assay type: functional;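 further: HCT116 colon tumor cells with beta catenin knocked out; cells exposed to compound for 60 hours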
[5] = test system: BJ; experiment: cytotoxicity toward BJ-TERT-LT-ST fibroblasts, dose response, cell-based, RAS-independent, luminescence (AID 1935); assay type: functional; conditions: Homo sapiens;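 further: BJ fibroblasts immortalized with TERT plus LT and ST oncogenes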
[6] = test system: BJ; experiment: cells; assay type: functional, cell-based; conditions: Homo sapiens
[7] = test system: BJ; experiment: cytotoxicity toward BJ-TERT fibroblasts, dose response, cell-based, RAS-independent, luminescence (AID 1933); assay type: functional; conditions: Homo sapiens
[8] = cytotoxicity toward DRD oncogenic fibroblasts, dose response, cell-based, non-viral oncogenic, luminescence (AID 1934); assay type: functional; conditions: Homo sapiens
[9] = test system: Vero; experiment: cells; assay type: functional; conditions: Chlorocebus sabaeus
[10] = test system: Streptococcus sp. 'group A'; experiment: growth inhibition of control SK(-) GAS strain, dose response, counter-screen for streptokinase expression inhibitor project, luminescence, kanamycin, BacTiterGlo, confirmation (AID 1900); assay type: functional, organism-based
[11] = Luminescence Cell-Based Dose Confirmation HTS to Identify Activators of 5'UTR Stem-Loop Driven Alpha-Synuclein mRNA Translation in H4 Neuroglioblastoma Cells. [Related pubchem assays: 1829 (Project Summary), 1814 (Primary HTS)]; assay type: functional
[12] = biological target: T2, Streptokinase A (Streptococcus pyogenes serotype M1, UniProt P10520); experiment: S. pyogenes streptokinase expression inhibitors, potency, dose response, plasminogen activation absorbance, OD405 (AID 1914); assay type: functional, Streptococcus pyogenes M1 GAS;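 further: secreted streptokinase activity via plasminogen activation per viability signal from cell pellet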
T2 sequence (P10520 whole entry): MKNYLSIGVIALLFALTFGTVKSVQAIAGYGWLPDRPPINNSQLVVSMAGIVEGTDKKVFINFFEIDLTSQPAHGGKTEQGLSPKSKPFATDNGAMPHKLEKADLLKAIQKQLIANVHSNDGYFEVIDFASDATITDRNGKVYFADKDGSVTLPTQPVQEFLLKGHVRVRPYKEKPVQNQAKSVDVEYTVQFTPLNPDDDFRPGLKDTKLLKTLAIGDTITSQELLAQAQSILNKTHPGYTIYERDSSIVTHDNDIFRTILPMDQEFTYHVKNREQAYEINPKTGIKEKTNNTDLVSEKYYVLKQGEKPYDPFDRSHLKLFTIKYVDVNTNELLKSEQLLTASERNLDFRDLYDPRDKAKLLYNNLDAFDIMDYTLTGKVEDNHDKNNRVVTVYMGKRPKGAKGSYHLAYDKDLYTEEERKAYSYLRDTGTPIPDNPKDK

[13] = test system: H4; experiment: Luminescence Cell-Based Dose Response HTS to Identify Activators of 5'UTR Stem-Loop Driven Prion Protein mRNA Translation in H4 Neuroglioblastoma Cells. [Related pubchem assays: 1829 (Project Summary), 1814 (Primary HTS)]; assay type: functional; conditions: Homo sapiens
[14] = test system: Streptococcus; experiment: Group A Streptococcus viability loss, dose response, counter-screen for streptokinase expression inhibitor project, luminescence, BacTiterGlo (AID 1915); assay type: functional, organism-based;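 further: potency for reduction of bacterial viability or growth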
[15] = test system: Vero; experiment: cells; assay type: functional, cell-based; conditions: Chlorocebus sabaeus
[16] = Luminescence Cell-Based Dose Response HTS to Identify Activators of Luciferase Translation or Activity in H4 […] Cells. [Related pubchem assays: 1829 (Project Summary), 1814 (Primary HTS)]; assay type: functional
[17] = biological target: Nonstructural protein 1 (Influenza A virus, UniProt Q194T2); assay type: functional, Influenza A virus (A/California/07/2009(H1N1))
[18] = biological target: T3, Protein RecA (Mycobacterium tuberculosis, UniProt P9WHJ3); experiment: Fluorescence Cell-Free Homogeneous Dose Retest to Identify Inhibitors of RecA-Intein Splicing Activity. [Related pubchem assays (depositor defined):AID2097, AID2223, AID489010, AID492950]; assay type: functional
T3 sequence (P9WHJ3 whole entry): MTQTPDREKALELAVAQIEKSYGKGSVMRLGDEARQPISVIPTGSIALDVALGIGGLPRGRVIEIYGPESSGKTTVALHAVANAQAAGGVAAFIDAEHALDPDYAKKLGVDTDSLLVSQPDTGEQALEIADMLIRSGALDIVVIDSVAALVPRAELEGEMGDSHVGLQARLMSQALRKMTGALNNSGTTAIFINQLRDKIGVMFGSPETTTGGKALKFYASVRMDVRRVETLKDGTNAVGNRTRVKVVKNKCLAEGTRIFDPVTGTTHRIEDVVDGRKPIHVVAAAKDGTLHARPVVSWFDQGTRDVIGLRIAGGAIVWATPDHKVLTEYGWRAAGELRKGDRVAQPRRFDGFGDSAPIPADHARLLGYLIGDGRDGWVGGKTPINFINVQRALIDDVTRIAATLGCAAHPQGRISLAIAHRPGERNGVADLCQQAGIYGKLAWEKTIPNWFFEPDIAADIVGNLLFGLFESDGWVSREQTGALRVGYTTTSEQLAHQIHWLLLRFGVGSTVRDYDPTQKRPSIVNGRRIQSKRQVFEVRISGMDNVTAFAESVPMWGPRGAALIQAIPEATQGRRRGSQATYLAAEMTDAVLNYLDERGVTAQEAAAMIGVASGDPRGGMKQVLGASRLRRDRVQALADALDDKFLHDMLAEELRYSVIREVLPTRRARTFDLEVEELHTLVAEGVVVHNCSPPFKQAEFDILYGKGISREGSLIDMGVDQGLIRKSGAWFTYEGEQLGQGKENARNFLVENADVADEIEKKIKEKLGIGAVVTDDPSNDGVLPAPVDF

[19] = biological target: T4, Replicative DNA helicase DnaB (Mycobacterium tuberculosis, UniProt P9WMR3); experiment: DnaB intein splicing inhibitors, dose response, biochemical, cell-free fluorescence (AID 449749); assay type: functional
T4 sequence (P9WMR3 whole entry): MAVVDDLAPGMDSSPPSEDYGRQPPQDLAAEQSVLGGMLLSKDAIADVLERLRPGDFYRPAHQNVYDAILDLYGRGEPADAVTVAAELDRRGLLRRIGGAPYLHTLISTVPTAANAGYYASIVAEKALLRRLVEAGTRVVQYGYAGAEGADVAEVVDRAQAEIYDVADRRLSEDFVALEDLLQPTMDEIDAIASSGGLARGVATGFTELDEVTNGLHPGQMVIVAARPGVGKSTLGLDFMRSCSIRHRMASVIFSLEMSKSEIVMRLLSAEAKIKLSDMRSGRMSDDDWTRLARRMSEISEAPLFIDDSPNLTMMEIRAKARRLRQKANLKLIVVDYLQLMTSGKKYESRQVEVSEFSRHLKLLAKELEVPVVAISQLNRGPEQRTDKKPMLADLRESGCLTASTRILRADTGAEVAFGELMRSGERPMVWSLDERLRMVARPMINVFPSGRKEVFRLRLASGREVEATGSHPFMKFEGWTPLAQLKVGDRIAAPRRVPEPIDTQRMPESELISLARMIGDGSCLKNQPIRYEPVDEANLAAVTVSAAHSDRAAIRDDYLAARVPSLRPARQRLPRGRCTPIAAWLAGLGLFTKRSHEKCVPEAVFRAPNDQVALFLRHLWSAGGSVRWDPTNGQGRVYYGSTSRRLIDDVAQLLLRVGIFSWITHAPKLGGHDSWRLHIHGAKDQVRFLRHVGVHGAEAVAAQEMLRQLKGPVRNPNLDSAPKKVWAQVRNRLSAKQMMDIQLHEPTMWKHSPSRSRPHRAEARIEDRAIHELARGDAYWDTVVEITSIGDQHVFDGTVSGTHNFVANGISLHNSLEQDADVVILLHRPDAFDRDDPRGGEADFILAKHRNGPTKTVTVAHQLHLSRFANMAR

[20] = Shn3 3'UTR reporter inhibitors, dose response, cell-based, Clone20 osteoblasts, firefly luciferase, cherry-picked (AID 624132); assay type: functional;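 further: firefly luciferase luminescence from reporter carrying the Shn3 3'UTR in osteoblasts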
[21] = P. falciparum Dd2 growth inhibitors, dose response, SYBR Green, cherry-picked samples (AID 1159567); assay type: functional, cell-based

Sequence of Nonstructural protein 1 (Q194T2 whole entry): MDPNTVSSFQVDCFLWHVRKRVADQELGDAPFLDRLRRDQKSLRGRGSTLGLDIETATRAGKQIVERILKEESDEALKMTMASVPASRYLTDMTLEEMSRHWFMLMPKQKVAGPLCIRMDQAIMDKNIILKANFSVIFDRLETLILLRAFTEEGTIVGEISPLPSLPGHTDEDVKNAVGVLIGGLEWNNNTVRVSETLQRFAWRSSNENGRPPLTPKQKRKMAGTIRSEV

Structure (SMILES): N#C/C(=C\c1ccc(Cl)cc1Cl)c1n[nH]c(Cn2cncn2)n1
- IC50 [1]: > 100 µM (inactive)

Structure (SMILES): CCN(c1ccccc1)S(=O)(=O)c1cccc(C(=O)Nc2ccc(C)cn2)c1
- CC50 [2]: 30.3 µM (active)
- IC50 [1]: > 100 µM (inactive)

Structure (SMILES): CC1CCCCN1S(=O)(=O)c1ccc(C(=O)Nc2ccccc2-c2nc3ccccc3[nH]2)cc1 (centres undefined)
- EC50 [3]: 17 µM (active)
- EC50 [4]: 25.5 µM (active)

Structure (SMILES): CCCc1nnc(NC(=O)CCC(=O)N2CCN(Cc3ccc(OC)c(F)c3)CC2)s1
- EC50 [5]: > 150 µM (not active)
- EC50 [6]: > 150 µM (inconclusive)
- EC50 [7]: 25.9 µM (active)
- EC50 [8]: > 150 µM (not active)

Structure (SMILES): CC1CC(C)CN(Cc2nc(N)nc(Nc3ccc4ccccc4c3)n2)C1 (centres undefined)
- CC50 [9]: 14.1 µM (active)
- EC50 [10]: > 150 µM (not active)
- EC50 [11]: > 60 µM (not active)
- EC50 [12]: > 150 µM (not active)
- EC50 [13]: > 120 µM (not active)
- EC50 [14]: > 150 µM (not active)
- IC50 [15]: > 25 µM (active)
- EC50 [16]: 12.9 µM (active)

Structure (SMILES): Cc1cc(N(C)N)nc(NC(=O)NS(=O)(=O)c2ccccc2Cl)n1
- IC50 [17]: 5.96 µM (active)

Structure (SMILES): COc1cc(/C=C2\C(=O)N(c3ccc(NC(C)=O)cc3)N=C2c2ccccc2)ccc1O
- EC50 [18]: > 380 µM (inconclusive)
- AC50 [19]: > 380 µM (inactive)

Structure (SMILES): CC1(C)Cc2c(sc3nc(-c4cccs4)n(N)c(=O)c23)CO1
- EC50 [3]: 16.7 µM (active)
- EC50 [4]: 23.9 µM (active)

Structure (SMILES): O=C(/C=C/c1ccc(Cl)cc1Cl)c1cccnc1
- CC50 [9]: > 25 µM (active)
- EC50 [3]: 7.26 µM (active)
- EC50 [4]: 5.09 µM (active)

Structure (SMILES): CC(C)(C)C(=O)Nc1cc(S(=O)(=O)N2CCCCC2)ccc1N1CCCCC1
- AC50 [20]: 23.1 µM (active)

Structure (SMILES): N#CC1=C(N)N(c2ccc(F)cc2)C2=C(C1c1ccc(O)cc1)S(=O)(=O)CC2 (centres undefined)
- IC50 [1]: > 100 µM (inactive)

Structure (SMILES): COc1ccc(OC)c(C(=O)C2COC(=O)C2)c1 (centres undefined)
- IC50 [1]: > 100 µM (inactive)

Structure (SMILES): COc1ccc(C(=O)Nc2ccccc2C(=O)N(Cc2ccco2)C(C(N)=O)C(C)C)cc1 (centres undefined)
- EC50 [3]: 6.76 µM (active)
- EC50 [4]: 9.3 µM (active)

Structure (SMILES): Nc1ccc2c(c1)sc1ccccc12
- IC50 [1]: 29 µM (active)

Structure (SMILES): O=C(CNCc1ccccn1)Nc1ccc([N+](=O)[O-])cc1C(=O)Nc1ccccc1F
- IC50 [17]: 5.49 µM (active)

Structure (SMILES): COc1ccccc1C(=O)N1CCN(c2cccc(Cl)c2)CC1
- EC50 [5]: 0.833 µM (inconclusive)
- EC50 [6]: 38.6 µM (inconclusive)
- EC50 [7]: 1.79 µM (active)
- EC50 [8]: 1.37 µM (active)

Structure (SMILES): COc1cc(/C=C/C(=O)c2cccc([N+](=O)[O-])c2)cc(OC)c1OC
- EC50 [3]: 3.46 µM (active)
- EC50 [4]: 2.7 µM (active)

Structure (SMILES): CCCOc1ccc(/C=N/Nc2ccccc2[N+](=O)[O-])c(O)c1
- EC50 [5]: > 150 µM (inconclusive)
- EC50 [6]: 12.2 µM (active)
- EC50 [7]: 11.3 µM (active)
- EC50 [8]: 10.1 µM (active)

Structure (SMILES): C/C(CC(=O)Nc1cc(C)ccn1)=N\NC(=O)c1cccc(C)c1
- EC50 [18]: 4.04 µM (active)
- AC50 [19]: 9.58 µM (active)

Structure (SMILES): COc1ccc2c3c([nH]c2c1)[C@H](CO)N(Cc1ccccc1Cl)CC31CN(C(C)=O)C1
- AC50 [21]: 5.9 µM (active)

Structure (SMILES): CCCc1cn([C@H]2C[C@@H]3O[C@@H](CO)CC[C@@H]3O[C@@H]2CCc2ccc(-c3ccc(OC)cc3)cc2)nn1
- AC50 [21]: 6.63 µM (active)

Structure (SMILES): COc1cccc(-c2ccc3c(c2)[C@H]2[C@H](CCN2C(=O)C2CCCCC2)[C@@H](CO)N3)c1
- AC50 [21]: 4.95 µM (active)

Structure (SMILES): COc1ccc2c3c([nH]c2c1)[C@@H](CO)N(Cc1ccc(Cl)cc1)CC31CCN(Cc2nccs2)CC1
- AC50 [21]: 4.65 µM (active)

Structure (SMILES): O=C(Nc1ccc(Cl)c(Cl)c1)c1ccccc1
- IC50 [1]: > 100 µM (inactive)
